Assay results published in US10800754B2, “Heterocyclic amide compound” (TAKEDA PHARMACEUTICAL COMPANY LIMITED, priority 2016, dated 2020).

Molecular target: T1, human PRS protein (Homo sapiens, UniProt P07814)
T1 construct: to construct His-Avi-hEPRS (998-1512) expression plasmid; His tag (N); Avi tag (N); TEV cleavage site (ENLYFQ/GS, encoded by forward primer hEPRS-TEV-NheF) (N); made in house; host or cells: E. coli BL21(DE3)
T1 sequence (P07814 998-1512): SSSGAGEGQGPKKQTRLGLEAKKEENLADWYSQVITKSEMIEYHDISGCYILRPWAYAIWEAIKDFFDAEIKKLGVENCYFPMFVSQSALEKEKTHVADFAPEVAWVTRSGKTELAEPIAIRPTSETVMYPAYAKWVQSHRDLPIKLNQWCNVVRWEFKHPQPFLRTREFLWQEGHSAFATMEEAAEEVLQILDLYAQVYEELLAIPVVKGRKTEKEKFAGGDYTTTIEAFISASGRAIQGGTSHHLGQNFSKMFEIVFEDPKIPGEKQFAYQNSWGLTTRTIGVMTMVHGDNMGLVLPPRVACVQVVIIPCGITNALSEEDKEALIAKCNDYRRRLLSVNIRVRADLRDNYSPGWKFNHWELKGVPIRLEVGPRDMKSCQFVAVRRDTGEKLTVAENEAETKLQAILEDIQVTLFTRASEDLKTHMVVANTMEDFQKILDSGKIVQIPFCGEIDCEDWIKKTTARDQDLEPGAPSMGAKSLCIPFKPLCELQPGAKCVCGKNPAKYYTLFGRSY
Test: PRS inhibitory activity (ATP/[32P]pyrophosphate exchange enzyme reaction)
Type: biochemical
Details: 300 nM test compound; recombinant human PRS (EPRS 998-1512); read-out: inhibitory rate (%) of PRS
Experimental: The PRS inhibitory activity of the compounds of the present invention was evaluated by the following method.
An expression plasmid of Catalytic Domain of human EPRS was obtained by PCR using human skeletal muscle cDNA Library (Takara Bio Inc.) as a template and 2 kinds of Primers 5′-[…]-3′ (hEPRS-TEV-NheF) (SEQ ID NO: 1) and 5′-[…]-3′ (hEPRS-St-Not-R) (SEQ ID NO: 2). PCR was performed using PrimeStar GXL DNA Polymerase (Takara Bio Inc.) and included (1) 98° C., 1 min, (2) cycles of 98° C., 10 sec, 65° C., 10 sec, 72° C., 1 min, and (3) reaction at 72° C., 1 min. This was cleaved with Nhe I and Not I (Takara Bio Inc.) and inserted using Ligation High (TOYOBO CO., LTD.) into the Nhe I/Not I site of pET21a (Novagen) with His-Avitag inserted thereinto. This was introduced into ECOS JM109 (NIPPON GENE CO., LTD.) to construct His-Avi-hEPRS (998-1512) expression plasmid.
Recombinant human PRS protein was prepared by transforming the His-Avi-hEPRS (998-1512) expression plasmid prepared above into ECOS Competent E. coli BL21(DE3) (NIPPON GENE CO., LTD.). Escherichia coli obtained by transformation was inoculated into 300 mL of LB medium (1% peptone, 0.5% yeast extract, 0.5% sodium chloride, 0.01% ampicillin) and cultured at 30° C. for 16 hr. The obtained culture medium was transferred into a jar culture tank charged with 6 L of the main fermentation medium (0.3% potassium dihydrogen phosphate, 0.6% disodium hydrogen phosphate, 0.1% ammonium chloride, 0.05% sodium chloride, 0.024% magnesium sulfate, 0.02% NEWPOL LB-625, 1.5% sorbitol, 1.5% casamino acid, 0.5% yeast extract, 0.01% ampicillin) and culturing was started at 37° C., quantity of airflow 5 L/min, stirring rotating speed 400 rpm. At the time point when the turbidity of the culture medium reached about 550 Klett units, the culture temperature was lowered to 16° C., isopropyl-β-D-thiogalactopyranoside (IPTG) was added to the final concentration 0.1 mM, and culturing was performed for another 16 hr to induce expression of human PRS. After completion of culturing, the culture medium was centrifuged at 5,000 rpm for 10 min. The obtained human PRS expressing Escherichia coli was suspended in a buffer containing 50 mM Tris-HCl (pH 8.0), 150 mM NaCl, 1 mM DTT, 5 U/ml Benzonase, 20 mM Imidazole and sonicated using Sonifier (BRANSON). The homogenate was centrifuged (33,000×G, 60 min, Beckman Coulter), the obtained supernatant was subjected to adsorption by passage through Ni-NTA Superflow (QIAGEN) column equilibrated in advance with 50 mM Tris-HCl (pH 8.0), 300 mM NaCl, 1 mM DTT, and elution was performed with a buffer containing 50 mM Tris-HCl (pH 8.0), 300 mM NaCl, 1 mM DTT, 250 mM Imidazole. Furthermore, gel filtration was performed using […] equilibrated in advance with a buffer containing 50 mM Tris-HCl (pH 8.0), 150 mM NaCl, 1 mM DTT, 10% glycerol to give purified human PRS protein. The protein concentration was measured using BCA Protein Assay Kit (PIERCE) and BSA as the standard.
A test compound was dissolved in 5 μL of an assay buffer (50 mM Tris-HCl (pH 7.5), 20 mM KCl, 1 mM DTT, 0.01% Tween 20) and incubated for 60 min with 5 μL of 40 nM human PRS protein dissolved in the assay buffer containing 40 mM MgCl2. An enzyme reaction of the human PRS protein was started by adding 10 μL of a substrate solution containing 300 μM ATP, 160 μM L-Proline, 400 μM pyrophosphate, [^32P]pyrophosphate (PerkinElmer, Waltham, Mass.) prepared to 1 MBq/mL. After incubation at room temperature for 30 min, the reaction was discontinued by adding 50 μL of discontinuation/washing solution (1M HCl, 200 mM sodium pyrophosphate) to the reaction mixture. The reaction solution was transferred to a filter plate (Merck Millipore, Billerica, Mass.) previously added with 200 μL of charcoal solution (0.5% HCl solution containing 10% charcoal (w/v)). […]

## N#C[C@@]1(C2CC2)CCN(c2ccnc(NC(=O)Cc3ccc(Cl)s3)c2)C1=O [Example 17, 2-(5-chloro-2-thienyl)-N-(4-((3S)-3-cyano-3-cyclopropyl-2-oxopyrrolidin-1-yl)pyridin-2-yl)acetamide]
  inhibition at 0.3 µM: 83%

## N#C[C@@]1(C2CC2)CCN(c2ccnc(NC(=O)Cc3ccc(Cl)s3)n2)C1=O [Example 130, 2-(5-chloro-2-thienyl)-N-(4-((3S)-3-cyano-3-cyclopropyl-2-oxopyrrolidin-1-yl)pyrimidin-2-yl)acetamide]
  inhibition at 0.3 µM: 84%

## N#CC1(C2CCC2)CCN(c2ccnc(NC(=O)Cc3cccc4ccccc34)c2)C1=O (centres unmarked) [Example 33, N-(4-(3-cyano-3-cyclobutyl-2-oxopyrrolidin-1-yl)pyridin-2-yl)-2-(1-naphthyl)acetamide]
  inhibition at 0.3 µM: 80%

## N#C[C@@]1(C2CC2)CCN(c2ccnc(NC(=O)Cc3cccc(-c4cccnc4)c3)c2)C1=O [Example 34, N-(4-((3S)-3-cyano-3-cyclopropyl-2-oxopyrrolidin-1-yl)pyridin-2-yl)-2-(3-(pyridin-3-yl)phenyl)acetamide]
  inhibition at 0.3 µM: 97%

## N#C[C@@]1(C2CC2)CCN(c2ccnc(NC(=O)Cc3ccccc3)c2)C1=O [Example 2, N-(4-((3S)-3-cyano-3-cyclopropyl-2-oxopyrrolidin-1-yl)pyridin-2-yl)-2-phenylacetamide]
  inhibition at 0.3 µM: 85%

## N#C[C@@]1(C2CC2)CCN(c2ccnc(NC(=O)Cc3cccc(-c4cnn(CC(F)(F)C(F)(F)F)c4)c3)c2)C1=O [Example 96, N-(4-((3S)-3-cyano-3-cyclopropyl-2-oxopyrrolidin-1-yl)pyridin-2-yl)-2-(3-(1-(2,2,3,3,3-pentafluoropropyl)-1H-pyrazol-4-yl)phenyl)acetamide]
  inhibition at 0.3 µM: 96%

## Cn1cc(-c2cccc(CC(=O)Nc3cc(N4CC[C@@](C#N)(C5CC5)C4=O)cc(C(F)(F)F)n3)c2)cn1 [Example 61, N-(4-((3S)-3-cyano-3-cyclopropyl-2-oxopyrrolidin-1-yl)-6-(trifluoromethyl)-pyridin-2-yl)-2-(3-(1-methyl-1H-pyrazol-4-yl)phenyl)acetamide]
  inhibition at 0.3 µM: 84%

## COc1cccc(CC(=O)Nc2cc(N3CC[C@@](C#N)(C4CC4)C3=O)ccn2)c1 [Example 10, N-(4-((3S)-3-cyano-3-cyclopropyl-2-oxopyrrolidin-1-yl)pyridin-2-yl)-2-(3-methoxyphenyl)acetamide]
  inhibition at 0.3 µM: 88%

## C=CC[C@]1(C#N)CCN(c2ccnc(NC(=O)Cc3cccc(-c4ccsc4)c3)c2)C1=O [Example 24, N-(4-((3R)-3-allyl-3-cyano-2-oxopyrrolidin-1-yl)pyridin-2-yl)-2-(3-(3-thienyl)phenyl)acetamide]
  inhibition at 0.3 µM: 71%

## N#C[C@@]1(C2CC2)CCN(c2cc(NC(=O)Cc3cccc(Cl)c3)ncn2)C1=O [Example 126, 2-(3-chlorophenyl)-N-(6-((3S)-3-cyano-3-cyclopropyl-2-oxopyrrolidin-1-yl)pyrimidin-4-yl)acetamide]
  inhibition at 0.3 µM: 57%

## COCCOCCn1cc(-c2cccc(CC(=O)Nc3cc(N4CC[C@@](C#N)(C5CC5)C4=O)ccn3)c2)cn1 [Example 86, N-(4-((3S)-3-cyano-3-cyclopropyl-2-oxopyrrolidin-1-yl)pyridin-2-yl)-2-(3-(1-(2-(2-methoxyethoxy)ethyl)-1H-pyrazol-4-yl)phenyl)acetamide]
  inhibition at 0.3 µM: 96%

## N#Cc1ccc(-c2cccc(CC(=O)Nc3cc(N4CC[C@@](C#N)(C5CC5)C4=O)ccn3)c2)s1 [Example 36, N-(4-((3S)-3-cyano-3-cyclopropyl-2-oxopyrrolidin-1-yl)pyridin-2-yl)-2-(3-(5-cyano-2-thienyl)phenyl)acetamide]
  inhibition at 0.3 µM: 96%

## N#C[C@@]1(C2CC2)CCN(c2ccnc(NC(=O)Cc3cccc(-c4cnn(CCn5cccn5)c4)c3)c2)C1=O [Example 80, N-(4-((3S)-3-cyano-3-cyclopropyl-2-oxopyrrolidin-1-yl)pyridin-2-yl)-2-(3-(1-(2-(1H-pyrazol-1-yl)ethyl)-1H-pyrazol-4-yl)phenyl)acetamide]
  inhibition at 0.3 µM: 98%

## CS(=O)(=O)CCn1cc(-c2cccc(CC(=O)Nc3cc(N4CC[C@@](C#N)(C5CC5)C4=O)ccn3)c2)cn1 [Example 89, N-(4-((3S)-3-cyano-3-cyclopropyl-2-oxopyrrolidin-1-yl)pyridin-2-yl)-2-(3-(1-(2-(methylsulfonyl)ethyl)-1H-pyrazol-4-yl)phenyl)acetamide]
  inhibition at 0.3 µM: 100%

## Cn1cc(-c2cccc(CC(=O)Nc3cc(N4CCC(C)(C)C4=O)ccn3)c2)cn1 [Example 43, N-(4-(3,3-dimethyl-2-oxopyrrolidin-1-yl)pyridin-2-yl)-2-(3-(1-methyl-1H-pyrazol-4-yl)phenyl)acetamide]
  inhibition at 0.3 µM: 88%

## COC(=O)Cn1cc(-c2cccc(CC(=O)Nc3cc(N4CC[C@@](C#N)(C5CC5)C4=O)ccn3)c2)cn1 [Example 73, methyl (4-(3-(2-((4-((3S)-3-cyano-3-cyclopropyl-2-oxopyrrolidin-1-yl)pyridin-2-yl)amino)-2-oxoethyl)phenyl)-1H-pyrazol-1-yl)acetate]
  inhibition at 0.3 µM: 99%

## Cc1cc(N2CCC(C)(C)C2=O)cc(NC(=O)Cc2cccc(-c3cnn(C)c3)c2)n1 [Example 49, N-(4-(3,3-dimethyl-2-oxopyrrolidin-1-yl)-6-methylpyridin-2-yl)-2-(3-(1-methyl-1H-pyrazol-4-yl)phenyl)acetamide]
  inhibition at 0.3 µM: 83%

## Cc1cc(N2CC(C)C(C#N)(C3CC3)C2=O)cc(NC(=O)Cc2ccccc2)n1 (centres unmarked) [Example 54, N-(4-(3-cyano-3-cyclopropyl-4-methyl-2-oxopyrrolidin-1-yl)-6-methylpyridin-2-yl)-2-phenylacetamide]
  inhibition at 0.3 µM: 77%

## N#C[C@@]1(C2CC2)CCN(c2ccnc(NC(=O)Cc3cccc(-c4cnn(CCn5ccnc5)c4)c3)c2)C1=O [Example 81, N-(4-((3S)-3-cyano-3-cyclopropyl-2-oxopyrrolidin-1-yl)pyridin-2-yl)-2-(3-(1-(2-(1H-imidazol-1-yl)ethyl)-1H-pyrazol-4-yl)phenyl)acetamide]
  inhibition at 0.3 µM: 97%

## N#C[C@@]1(C2CC2)CCN(c2ccnc(NC(=O)Cc3cccc(Cl)c3)n2)C1=O [Example 129, 2-(3-chlorophenyl)-N-(4-((3S)-3-cyano-3-cyclopropyl-2-oxopyrrolidin-1-yl)pyrimidin-2-yl)acetamide]
  inhibition at 0.3 µM: 87%
